“And” between values parts separate entries of the source, which are not always exact repeats. Equal values may be shown once.

The record followed here is PMC9304322, “Targeting retinoic acid receptor alpha-corepressor interaction activates chaperone-mediated autophagy and protects against retinal degeneration” (Nature Communications, 2022).

The subject of data set [1] is rd10 mice. Particulars: mouse, in vivo, ip, 40 mg/kg.
Another data set concerns CaCo-2 cells. The experiment in a line: Bidirectional permeability assay with CaCo-2 cells. The format is in vitro ADME, human. Particulars: in words. The protocol:
In vitro solubility in the following conditions A) HBSS/HEPES 10 mM/BSA 0.1% pH 6 B) HBSS/HEPES 10 mM/BSA 0.1% pH 7.4 C) TRIS/BSA 0.1% PBS (pH 7.4 and at indicated doses were measured by Nephelometry using the NEPHELOstar Galaxy apparatus (BMG Lab Technologies). In vitro stability in human, mouse and rat liver microsomes and permeability using a bidirectional permeability assay with CaCo-2 cells (pH 6.5/7.4) assays were performed with standard methodology and analyzed by LC-MS/MS. at SIMM-SERVIER joint Biopharmacy Laboratory. ADME properties for CA39 and CA77 were predicted by QikProp (Schrödinger, LLC, Releases 2016-2020) software.
For orientation: Passage across Caco-2 layers is used to estimate intestinal permeability.

Data set [2] relates to retinal explants of rd10 mice. The experiment in a line: Ex-vivo retinal cultures of rd10 mice. More on the design: species or system mouse. Particulars: rd10 P21 to P24; 40 μM for 72 h; vs contralateral untreated explant. The protocol: After removal of the eyes, all non-relevant tissue was removed from the neuroretina, which was then placed, photoreceptors upside down, in Millicell support inserts (Millipore, #PICM0RG50) and maintained in DMEM with 1 μM insulin (SIGMA, #I2643) for 72 h at 37 °C in a 5% CO2 atmosphere. Where indicated, retinas were incubated with 40 μM CA77 for the indicated times. The retinas were then washed twice with phosphate-buffered saline (PBS), fixed overnight in 4% paraformaldehyde (w/v) in 0.1 M phosphate buffer (pH 7.4) and processed. Retinas were separated along dorsoventral axis and nasal half was used for whole-mounts and temporal half was used for 12 µm cryosections.
Immunostainings were performed overnight at 4 °C using antibodies against visual (rod) arrestin and cone arrestin after initial permeabilization with 2% Triton X-100 for 1 h at RT and subsequent incubation with blocking solution (10% normal goat serum, 0.25% Triton X-100 in PBS). The retinas were then washed and incubated for 1 h with Alexa 568 or 647 (Invitrogen, #A-11004, #A32728), counterstained with DAPI (1 µg/mL, Sigma, # D9542), mounted in Fluoromount-G (Cultek, #100-01), and visualized by confocal microscopy in an SP5 confocal microscope (TCS SP5; Leica Microsystems). […]

In data set [3] the test system is rd10 mice. The experiment in a line: rd10 mice, single intravitreal injection, retina histology. The format is in vivo, mouse. Here is the method:
C57BL/6 J mice wild-type (WT) and homozygous for the Pde6 mutation (rd10 mouse model of retinal degeneration) were obtained from The Jackson Laboratory and experiments were performed at the age indicated in each part of the study. C57BL/6 KFERQ-Dendra mice were generated by back-crossing FVB KFERQ-Dendra mice with wild-type C57BL/6 mice for 8 generations. Both male and female animals were used in this study in equally distribution groups. However, results from both sexes were pooled, because of absence of significant differences in any of the parameters analyzed after statistical analysis with a mixed model of two-way ANOVA sex and treatment as independent variables and the corresponding measure as dependent variable. All animals were housed in a barrier-controlled facility (19–23 °C 30–60% relative humidity; 12 h light/dark cycle) with ad libitum access to standard chow pellets (protein 19 gm%/carbohydrate 67 gm%/fat 4 gm%) and water. For animal administration of CA compounds, a formula containing 30% PEG 400 (Sigma, #8.0745), 65% of 5% glucose solution, 5% Tween 80 (Sigma, #P1754) was used to dissolve them. CA compounds were prepared freshly by adding 5% DMSO and sonicating for 1 h. Treatment of KFERQ-Dendra mice with the CA compounds was done at 4 months of age by i.p. daily injection of 30 mg/kg bw or vehicle for three consecutive days and tissues collected 6 h after the last injection. In the case of rd10 mice, animals were daily injected from P18 to P25 with CA77 (40 mg/kg bw). In the case of intravitreal administration, a single intravitreal injection was applied at P18 with CA77 (40 µM) in DMSO/PBS and the contralateral eye was injected with PBS and DMSO at same concentration. At P26, mice were sacrificed and eyes fixed overnight with 4% PFA (Sigma, #P6148) in PBS at 4 °C for immunofluorescence or retinas dissected and immediately frozen for biochemistry. Distribution of animals in the vehicle or treatment group was done randomly. ICR (CD-1) outbred 3 months old male mice from ENVIGO were used for the pharmacokinetic studies (see pharmacokinetic section for housing and handling details). All animal studies and procedures complied with ethical regulations, were performed in accordance with the European Union guidelines and the ARVO Statement for the Use of Animals in Ophthalmic and Vision Research and were approved by the Institutional Animal Care and Use Committee at the Albert Einstein College of Medicine, the CSIC Bioetica Comite and approved by the Comunidad de Madrid, PROEX232/17.
12 μm cryosections and immunofluorescence in retinal sections[10] after orienting retinas with a dorsal mark, so comparisons were performed taking into account the precise retinal area. Primary antibodies used in this study were visual (rod) arrestin, cone arrestin, Opsin R/G, transducin, GFAP, N-CoR1. Sections were visualized by confocal microscopy (TCS SP5; Leica Microsystems).
For ONL thickness quantification, DAPI images were taken at 40X in a fluorescence microscope Multidimensional system Leica AF6000 LX coupled to DMI600B microscope and Hamamatsu CCD 9100-O2 camera. At least two sections per animal were analyzed, preferably central sections. Eight images per retina equally distributed along the retina were acquired. Three measures were taken per image and ratio ONL/INL quantified with ImageJ tools. Leica LAS-X (3.7.4.23463) was used for image acquisition and ImageJ (v.2.1.0) was used for image processing. For OS length measures, fixed positions common to all pictures were considered and OS length was measured using ImageJ straight line tool.
Eyes were enucleated, put in a plate with cold PBS and an incision was made under the microscope to let the fixative enter into the eye. […]

A further data set has as its system NIH3T3. The experiment in a line: Cell viability after paraquat (CellTiter-Blue). The format is cell-based, mouse.
Setting [4] is: rd10 mice, 7 days after a single intravitreal injection (40 µM) at P18.
[5] abbreviates: rd10 mice, individual values and Mean CA77.

In the case of `CC(=O)Nc1ccc(C2=Nc3ccc(Cl)cc3OC2)cc1` [CA77], the “ERG amplitude of b-mixed, b-phot and flicker waves” value in the data set with rd10 mice [1] is “significantly higher amplitude”. In the data set on CaCo-2 cells, the membrane permeability result is on record as “highly membrane permeable”. Further, in data set [2], the “cones (cone arrestin-positive) in retinal explants” value is recorded as “higher preservation for cones” and the “number of rods (rod arrestin-positive) in retinal explants” value was “significant preservation of the number of rods”. For the same compound, in the data set on rd10 mice [3] (Fig. S9c, individual animals), the ONL/INL is 0.8086 and 0.8292 and 0.9847. The “ONL/INL, mean” value in the data set on rd10 mice [3] (Fig. S9c, mean, veh 0.676) is reported as 0.8578. Besides, the “%functional cones” value with rd10 mice [3] (Fig. S9d, individual animals) is 28.972% and 50% and 24.2991% and 28.7037% and 13.3929% and 16.5289% and 21.8182%. In the data set on rd10 mice [3] (Fig. S9d, mean, veh 10.94), the “%functional cones, mean” value came to 26.24%. In the data set with rd10 mice [3] (setting [4]), the gliosis result is listed as “significatively improved” and the “retinal ONL/INL ratio” value is recorded as “thicker retinal ONL/INL ratio”. Also, in the data set with rd10 mice [3] (setting [5]), the “Fig. 7a, retinal measurement by eccentricity, eccentricity 1” value turned out to be 0.3526; the “Fig. 7a, retinal measurement by eccentricity, eccentricity 2” value is recorded as 0.3984; the “Fig. 7a, retinal measurement by eccentricity, eccentricity 3” value worked out at 0.5851; the “Fig. 7a, retinal measurement by eccentricity, eccentricity 4” value amounted to 0.8477. Besides, in the data set on rd10 mice [3] (setting [5]), the “Fig. 7a, retinal measurement by eccentricity, eccentricity -1” value came out at 0.3423; the “Fig. 7a, retinal measurement by eccentricity, eccentricity -2” value came to 0.3489; the “Fig. 7a, retinal measurement by eccentricity, eccentricity -3” value amounted to 0.5902.

Consider `Clc1ccc2c(c1)OCC(c1ccc(-c3ccccc3)cc1)=N2` [CA39], for which, in the data set with NIH3T3 (2 μM or 10 μM, compared with AR7), the “protection against paraquat, compound added after the insult” value is given as “significantly higher protection than AR7”. For the same compound, the “cell death by paraquat, compound administered before the insult” value in the data set on NIH3T3 (12 h treatment with 2 μM or 10 μM before PQ) is “reduced cell death”.
